ChEMBL document CHEMBL1132042, “Macrocyclic hydroxamate inhibitors of matrix metalloproteinases and TNF-alpha production” (Bioorg Med Chem Lett, 1999)

Tests used:
[1] = organism: Homo sapiens; assay: Compound was tested for its ability to suppress the release of TNF-alpha (TNF-WBA) in human whole blood after stimulation with LPS.; type: functional, organism-based
[2] = target: Matrix metalloproteinase-9 (Homo sapiens, UniProt P14780); assay: Inhibition of MMP-9 (matrix metalloprotease-9, gelatinase B)
Matrix metalloproteinase-9, sequence (P14780 whole entry): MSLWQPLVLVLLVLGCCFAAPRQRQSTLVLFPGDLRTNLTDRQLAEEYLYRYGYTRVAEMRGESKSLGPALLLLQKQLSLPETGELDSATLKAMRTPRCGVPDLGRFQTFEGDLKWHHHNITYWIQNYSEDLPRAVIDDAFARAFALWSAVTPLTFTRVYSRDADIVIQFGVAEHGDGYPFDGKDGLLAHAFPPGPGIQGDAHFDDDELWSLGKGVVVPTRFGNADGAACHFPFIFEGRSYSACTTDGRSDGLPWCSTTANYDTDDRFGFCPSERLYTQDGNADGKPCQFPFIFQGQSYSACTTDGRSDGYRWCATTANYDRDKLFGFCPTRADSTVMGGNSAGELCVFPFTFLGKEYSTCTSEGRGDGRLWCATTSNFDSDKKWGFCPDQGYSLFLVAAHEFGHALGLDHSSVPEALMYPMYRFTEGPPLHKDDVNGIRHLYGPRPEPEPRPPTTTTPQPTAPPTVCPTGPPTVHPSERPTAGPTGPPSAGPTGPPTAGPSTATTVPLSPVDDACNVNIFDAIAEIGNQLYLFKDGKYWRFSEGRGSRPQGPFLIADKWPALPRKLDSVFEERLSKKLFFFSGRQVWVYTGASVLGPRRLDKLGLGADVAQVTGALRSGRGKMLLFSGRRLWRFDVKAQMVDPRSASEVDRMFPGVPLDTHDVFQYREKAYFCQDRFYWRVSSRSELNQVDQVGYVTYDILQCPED

[3] = target: T1, Interstitial collagenase (Homo sapiens, UniProt P03956); assay: Inhibition of MMP-1 (human fibroblast collagenase)
T1 sequence (P03956 whole entry): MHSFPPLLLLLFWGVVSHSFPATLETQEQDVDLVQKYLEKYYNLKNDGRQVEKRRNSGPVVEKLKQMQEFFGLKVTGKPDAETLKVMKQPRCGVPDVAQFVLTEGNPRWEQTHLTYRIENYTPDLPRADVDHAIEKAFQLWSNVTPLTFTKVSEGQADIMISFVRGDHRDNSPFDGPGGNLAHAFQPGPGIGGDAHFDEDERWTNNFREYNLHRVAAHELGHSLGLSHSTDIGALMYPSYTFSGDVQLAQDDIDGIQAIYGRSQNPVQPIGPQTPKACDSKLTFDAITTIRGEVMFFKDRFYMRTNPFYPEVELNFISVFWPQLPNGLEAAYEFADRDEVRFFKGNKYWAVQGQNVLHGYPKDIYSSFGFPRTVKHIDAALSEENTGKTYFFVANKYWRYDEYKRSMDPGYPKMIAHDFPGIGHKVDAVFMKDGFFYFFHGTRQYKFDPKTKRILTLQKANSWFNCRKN

[4] = target: Stromelysin-1 (Homo sapiens, UniProt P08254); assay: Inhibition of MMP-3 (human fibroblast stromelysin)
Stromelysin-1, sequence (P08254 whole entry): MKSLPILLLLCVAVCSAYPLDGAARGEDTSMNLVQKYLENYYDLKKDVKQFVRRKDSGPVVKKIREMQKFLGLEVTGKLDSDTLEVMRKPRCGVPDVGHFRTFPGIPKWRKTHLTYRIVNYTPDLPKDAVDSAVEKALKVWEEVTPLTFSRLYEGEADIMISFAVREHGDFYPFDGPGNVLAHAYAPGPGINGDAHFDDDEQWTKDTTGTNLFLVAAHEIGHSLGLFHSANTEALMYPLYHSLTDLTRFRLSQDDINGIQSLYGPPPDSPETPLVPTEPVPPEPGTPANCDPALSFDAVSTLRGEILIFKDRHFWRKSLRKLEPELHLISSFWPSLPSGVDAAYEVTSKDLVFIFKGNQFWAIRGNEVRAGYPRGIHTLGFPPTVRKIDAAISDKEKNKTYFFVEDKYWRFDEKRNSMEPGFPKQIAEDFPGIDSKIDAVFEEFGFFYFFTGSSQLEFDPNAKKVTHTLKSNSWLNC

Row | SMILES | IC50 [1] | Ki [2] | Ki [3] | Ki [4]
1 | CNC(=O)[C@@H]1CCCCN(S(=O)(=O)c2ccccc2)CCC[C@H](C(=O)NO)[C@@H](CC(C)C)C(=O)N1 | 1300 nM | < 1 nM | < 1 nM | 3.4 nM
2 | CNC(=O)[C@@H]1CCCCN(S(=O)(=O)c2cn(C)cn2)CCC[C@H](C(=O)NO)[C@@H](CC(C)C)C(=O)N1 | 1400 nM | 2.7 nM | < 1 nM | 12 nM
3 | CNC(=O)[C@@H]1CCCCN(S(=O)(=O)C(F)(F)F)CCC[C@H](C(=O)NO)[C@@H](CC(C)C)C(=O)N1 | 1300 nM | < 1 nM | 4 nM | 118 nM
4 | CNC(=O)[C@@H]1CCCCNCCC[C@H](C(=O)NO)[C@@H](CC(C)C)C(=O)N1 | 2700 nM | 12.8 nM | < 1 nM | –

Further lines, results first:

Row | IC50 [1] | Ki [2] | Ki [3] | Ki [4] | SMILES
5 | 1400 nM | < 1 nM | < 1 nM | 3 nM | CNC(=O)[C@@H]1CCCCN(C(=O)OC(C)(C)C)CCC[C@H](C(=O)NO)[C@@H](CC(C)C)C(=O)N1
6 | 950 nM | 1.6 nM | < 1 nM | 99 nM | CNC(=O)[C@@H]1CCCCN(S(=O)(=O)c2ccc(N)cc2)CCC[C@H](C(=O)NO)[C@@H](CC(C)C)C(=O)N1
7 | 1600 nM | < 1 nM | 2.3 nM | 15 nM | CNC(=O)[C@@H]1CCCCN(S(=O)(=O)c2c(C)cc(C)cc2C)CCC[C@H](C(=O)NO)[C@@H](CC(C)C)C(=O)N1
